Test results: PubChem BioAssay (NCI)
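Following 48 hours of exposure in 96-well plates, responses at five concentrations were used to interpolate endpoints linearly. TGI: total growth inhibition.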

How the values were obtained:
Assay in all cases: DTP human tumour cell line panel, 48 h
786-0 renal = tested on: 786-0 renal
A498 renal = tested on: A498 renal
A549 NSCLC = tested on: A549 NSCLC
ACHN renal = tested on: ACHN renal
BT-549 breast = tested on: BT-549 breast
CAKI-1 renal = tested on: CAKI-1 renal
COLO 205 colon = tested on: COLO 205 colon
EKVX NSCLC = tested on: EKVX NSCLC
HCC-2998 colon = tested on: HCC-2998 colon
HCT-116 colon = tested on: HCT-116 colon
HCT-15 colon = tested on: HCT-15 colon
HL-60(TB) leukemia = tested on: HL-60(TB) leukemia
HOP-62 NSCLC = tested on: HOP-62 NSCLC
HT29 colon = tested on: HT29 colon
IGROV1 ovarian = tested on: IGROV1 ovarian
K-562 leukemia = tested on: K-562 leukemia
KM12 colon = tested on: KM12 colon
LOX IMVI melanoma = tested on: LOX IMVI melanoma
M14 melanoma = tested on: M14 melanoma
MALME-3M melanoma = tested on: MALME-3M melanoma
MCF7 breast = tested on: MCF7 breast
MDA-MB-231 breast = tested on: MDA-MB-231 breast
MDA-MB-435 = tested on: MDA-MB-435
MDA-N = tested on: MDA-N
MOLT-4 leukemia = tested on: MOLT-4 leukemia
NCI-H226 lung = tested on: NCI-H226 lung
NCI-H23 lung = tested on: NCI-H23 lung
NCI-H522 lung = tested on: NCI-H522 lung
NCI/ADR-RES ovarian = tested on: NCI/ADR-RES ovarian
OVCAR-3 ovarian = tested on: OVCAR-3 ovarian
OVCAR-4 ovarian = tested on: OVCAR-4 ovarian
OVCAR-5 ovarian = tested on: OVCAR-5 ovarian
OVCAR-8 ovarian = tested on: OVCAR-8 ovarian
PC-3 prostate = tested on: PC-3 prostate
RPMI-8226 leukemia = tested on: RPMI-8226 leukemia
SF-295 CNS = tested on: SF-295 CNS
SF-539 CNS = tested on: SF-539 CNS
SK-MEL-2 melanoma = tested on: SK-MEL-2 melanoma
SK-MEL-28 melanoma = tested on: SK-MEL-28 melanoma
SK-MEL-5 melanoma = tested on: SK-MEL-5 melanoma
SK-OV-3 ovarian = tested on: SK-OV-3 ovarian
SN12C renal = tested on: SN12C renal
SNB-19 CNS = tested on: SNB-19 CNS
SNB-75 CNS = tested on: SNB-75 CNS
SR leukemia = tested on: SR leukemia
SW-620 colon = tested on: SW-620 colon
T-47D breast = tested on: T-47D breast
TK-10 renal = tested on: TK-10 renal
U251 CNS = tested on: U251 CNS
UACC-257 melanoma = tested on: UACC-257 melanoma
UACC-62 melanoma = tested on: UACC-62 melanoma
UO-31 renal = tested on: UO-31 renal
DU-145 prostate = tested on: DU-145 prostate
HOP-92 NSCLC = tested on: HOP-92 NSCLC
SF-268 CNS = tested on: SF-268 CNS
CCRF-CEM leukemia = tested on: CCRF-CEM leukemia
HS 578T breast = tested on: HS 578T breast
NCI-H460 lung = tested on: NCI-H460 lung
RXF 393 renal = tested on: RXF 393 renal

Measured: TGI

NNC1=N/C(=C\c2ccco2)C(=O)N1
not listed: DU-145 prostate | HOP-92 NSCLC | SF-268 CNS | CCRF-CEM leukemia | HS 578T breast | NCI-H460 lung | RXF 393 renal
> 100 µM: all other assays above

COc1cc2cc(C(=O)N3CC(CCl)c4c3cc(NCCN)c3ccccc43)[nH]c2c(OC)c1OC (stereo not given)
< 0.0121 µM: M14 melanoma
> 100 µM: SR leukemia
< 0.0468 µM: SF-295 CNS
0.0789 µM: EKVX NSCLC
< 0.0328 µM: PC-3 prostate
0.054 µM: OVCAR-4 ovarian
0.0799 µM: NCI/ADR-RES ovarian
0.0817 µM: BT-549 breast
0.484 µM: SF-268 CNS
0.564 µM: SK-MEL-28 melanoma
< 0.0221 µM: HOP-62 NSCLC
< 0.01 µM: ACHN renal | CAKI-1 renal | COLO 205 colon | HOP-92 NSCLC | KM12 colon | MCF7 breast | MDA-MB-435 | NCI-H23 lung | NCI-H522 lung | SK-MEL-2 melanoma | U251 CNS | UACC-62 melanoma
0.311 µM: SW-620 colon
1.42 µM: SK-OV-3 ovarian
0.0479 µM: SNB-75 CNS
< 0.0134 µM: MALME-3M melanoma
1.07 µM: DU-145 prostate | T-47D breast
< 0.0181 µM: TK-10 renal
0.0536 µM: HCT-15 colon
< 0.0203 µM: MDA-N
< 0.0132 µM: UO-31 renal
< 0.0136 µM: A498 renal
< 0.017 µM: SN12C renal

CN1C[C@H]2[C@@H](C1=O)[C@H](c1ccccc1)ON2C
not listed: 786-0 renal | A498 renal | BT-549 breast | EKVX NSCLC | HL-60(TB) leukemia | KM12 colon | MALME-3M melanoma | SF-539 CNS | UACC-62 melanoma | SF-268 CNS | RXF 393 renal
> 100 µM: all other assays above

Nn1c(CCCCCCCCc2nnc(COc3ccccc3)n2N)nnc1COc1ccccc1
not listed: OVCAR-3 ovarian | SF-539 CNS | SR leukemia | CCRF-CEM leukemia
> 100 µM: all other assays above
